Columns and labels:
[1] = Inhibition of SOS1/KRAS G13D mutant protein-protein interaction in human DLD-1 cells assessed as ERK1/2 phosphorylation measured after 1 hr by homogeneous time-resolved fluorescence (HTRF) method; format: cell-based; conditions: DLD-1, 1 h
[2] = Toxicity in BALB/c mouse xenografted with human MIA PaCa-2 cells harboring KRAS G12C mutant assessed as change in body weight at 50 mg/kg, po once a day measured for 16 days; format: organism-based; conditions: in vivo, 384 h, time 16 day
[3] = test system: MIA PaCa-2; assay: In vivo antitumor activity against human MIA PaCa-2 cells harboring KRAS G12C mutant xenografted in BALB/c mouse assessed as reduction in tumor volume at 50 mg/kg, po once a day measured for 16 days relative to control; format: functional; design: scale not given: the % may be the effect or the level left; conditions: time 16 day
[4] = Toxicity in BALB/c mouse xenografted with human MIA PaCa-2 cells harboring KRAS G12C mutant assessed as mortality at 50 mg/kg, po once a day measured for 16 days; format: organism-based; conditions: in vivo, 384 h, time 16 day
[5] = Half life in ICR mouse at 20 mg/kg, po by LC-MS/MS analysis; format: ADME, organism-based; conditions: in vivo; for half-life: ICR; for t1/2: po, 20 mg/kg
[6] = Tmax in ICR mouse at 20 mg/kg, po by LC-MS/MS analysis; format: ADME, organism-based; conditions: in vivo
[7] = Cmax in ICR mouse at 20 mg/kg, po by LC-MS/MS analysis; format: ADME, organism-based; design: dose 20 mg/kg, route po; conditions: in vivo
[8] = AUC in ICR mouse at 20 mg/kg, po by LC-MS/MS analysis; format: ADME, organism-based; design: dose 20 mg/kg, route po; conditions: in vivo
[9] = MRT in ICR mouse at 20 mg/kg, po by LC-MS/MS analysis; format: ADME, organism-based; conditions: in vivo
[10] = Elimination rate constant in ICR mouse at 20 mg/kg, po by LC-MS/MS analysis; format: ADME, organism-based; conditions: in vivo; for k el: ICR; for Kel: po, 20 mg/kg
[11] = molecular target: SOS1-KRAS (Homo sapiens, UniProt Q07889); assay: Inhibition of human recombinant SOS1 (residue 564-1049)/KRAS G12C mutant protein-protein interaction at incubated for 25 degC for 60 mins by homogeneous time-resolved fluorescence (HTRF) method
SOS1-KRAS, sequence (Q07889 whole entry, looked up, stated change not applied): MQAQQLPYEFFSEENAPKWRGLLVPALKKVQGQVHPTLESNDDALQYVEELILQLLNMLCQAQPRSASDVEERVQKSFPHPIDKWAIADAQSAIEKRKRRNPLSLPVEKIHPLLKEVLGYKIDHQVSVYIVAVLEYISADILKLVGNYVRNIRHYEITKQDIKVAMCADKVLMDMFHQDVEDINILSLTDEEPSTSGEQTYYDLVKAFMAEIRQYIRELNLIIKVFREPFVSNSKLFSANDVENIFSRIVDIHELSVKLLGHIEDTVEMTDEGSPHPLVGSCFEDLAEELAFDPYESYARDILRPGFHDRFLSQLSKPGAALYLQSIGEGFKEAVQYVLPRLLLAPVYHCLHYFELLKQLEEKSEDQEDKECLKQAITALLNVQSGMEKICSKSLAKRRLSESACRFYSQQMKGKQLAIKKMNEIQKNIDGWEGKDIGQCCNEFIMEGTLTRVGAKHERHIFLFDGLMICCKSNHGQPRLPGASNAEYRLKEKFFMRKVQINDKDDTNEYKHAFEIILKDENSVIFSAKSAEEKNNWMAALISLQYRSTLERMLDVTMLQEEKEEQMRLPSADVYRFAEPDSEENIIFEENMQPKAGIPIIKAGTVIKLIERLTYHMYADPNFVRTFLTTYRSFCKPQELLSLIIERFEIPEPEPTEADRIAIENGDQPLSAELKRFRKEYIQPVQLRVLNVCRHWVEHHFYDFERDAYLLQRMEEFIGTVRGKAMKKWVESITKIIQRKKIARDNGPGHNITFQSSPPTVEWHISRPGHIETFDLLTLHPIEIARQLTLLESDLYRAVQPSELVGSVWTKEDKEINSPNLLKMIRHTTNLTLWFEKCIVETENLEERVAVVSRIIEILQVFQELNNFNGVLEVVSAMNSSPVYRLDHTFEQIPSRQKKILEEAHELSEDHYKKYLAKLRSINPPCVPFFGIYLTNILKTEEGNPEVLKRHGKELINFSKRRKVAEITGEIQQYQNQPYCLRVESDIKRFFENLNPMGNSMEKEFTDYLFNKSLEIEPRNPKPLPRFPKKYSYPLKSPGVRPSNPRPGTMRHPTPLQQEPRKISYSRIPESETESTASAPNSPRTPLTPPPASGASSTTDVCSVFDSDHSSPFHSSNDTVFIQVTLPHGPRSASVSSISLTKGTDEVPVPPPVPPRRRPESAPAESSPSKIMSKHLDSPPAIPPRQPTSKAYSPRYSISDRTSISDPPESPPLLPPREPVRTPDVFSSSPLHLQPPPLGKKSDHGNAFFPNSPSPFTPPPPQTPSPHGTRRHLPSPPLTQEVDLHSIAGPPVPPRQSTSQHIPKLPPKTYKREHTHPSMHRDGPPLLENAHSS

[12] = Half life in ICR mouse at 10 mg/kg, po by LC-MS/MS analysis; format: ADME, organism-based; conditions: in vivo
[13] = Tmax in ICR mouse at 10 mg/kg, po by LC-MS/MS analysis; format: ADME, organism-based; conditions: in vivo
[14] = Cmax in ICR mouse at 10 mg/kg, po by LC-MS/MS analysis; format: ADME, organism-based; design: dose 10 mg/kg, route po; conditions: in vivo
[15] = AUC in ICR mouse at 10 mg/kg, po by LC-MS/MS analysis; format: ADME, organism-based; design: dose 10 mg/kg, route po; conditions: in vivo
[16] = MRT in ICR mouse at 10 mg/kg, po by LC-MS/MS analysis; format: ADME, organism-based; conditions: in vivo
[17] = Elimination rate constant in ICR mouse at 10 mg/kg, po by LC-MS/MS analysis; format: ADME, organism-based; conditions: in vivo

Structure (SMILES) | IC50 [1] [nM] | Tmax [6] [h] | Cmax [7] [ng/mL] | AUC [8] [ng·h/mL] | MRT [9] [h] | further results
Cc1nc(N[C@H](C)c2cccc(C(F)F)c2F)c2cc3c(cc2n1)OC[C@H]1CN(C2CCOCC2)CCN31 | 57 | – | – | – | – | –
Cc1nc(N[C@H](C)c2cccc(C(F)F)c2F)c2cc3c(cc2n1)OC[C@H]1CN(C(=O)[C@@H]2C[C@H]2F)CCN31 | 6 | 5.67 | 651 | 4010 | 4.08 | Activity [2]: Non-Toxic; Activity [3]: 49%; Activity [4]: Non-Toxic; half-life [5]: 6.67 h; k el [10]: 2.78e-05 s⁻¹
COC(=O)N1CCN2c3cc4c(N[C@H](C)c5cccc(C(F)F)c5F)nc(C)nc4cc3OC[C@H]2C1 | 22 | – | – | – | – | –
Cc1nc(N[C@H](C)c2cc(N)cc(C(F)(F)F)c2)c2cc3c(cc2n1)OCCO3 | 690 | – | – | – | – | IC50 [11]: 904 nM
Cc1nc(N[C@H](C)c2cccc(C(F)F)c2F)c2cc3c(cc2n1)OC[C@H]1CN(C)CCN31 | 86 | – | – | – | – | –
Cc1nc(N[C@H](C)c2cccc(C(F)F)c2F)c2cc3c(cc2n1)OC[C@H]1CN(C(=O)C(C)(C)C)CCN31 | 25 | – | – | – | – | –
Cc1nc(N[C@H](C)c2cccc(C(F)F)c2F)c2cc3c(cc2n1)OC[C@H]1CN(C(=O)C2CCOCC2)CCN31 | 18 | 0.91 | 241 | 646 | 2.46 | half-life [5]: 2.13 h; k el [10]: 9.44e-05 s⁻¹
Cc1nc(N[C@H](C)c2cccc(C(F)F)c2F)c2cc3c(cc2n1)OC[C@H]1CN(C(C)C)CCN31 | 168 | – | – | – | – | –
CC(=O)N1CCN2c3cc4c(N[C@H](C)c5cccc(C(F)(F)C(C)(C)O)c5F)nc(C)nc4cc3OC[C@H]2C1 | 10 | – | – | – | – | IC50 [11]: 12.7 nM; half-life [12]: 3.24 h; Tmax [13]: 0.625 h; Cmax [14]: 5.03 ng/mL; AUC [15]: 7.7 ng·h/mL; MRT [16]: 1 h; k el [17]: 3.89e-05 s⁻¹
Cc1nc(N[C@H](C)c2cccc(C(F)F)c2F)c2cc3c(cc2n1)OC[C@H]1CN(C(=O)C2CCO2)CCN31 (some centres not stated) | 16 | 5.67 | 97.1 | 534 | 4.55 | t1/2 [5]: 14.3 h; Kel [10]: 0.13 h⁻¹
Cc1nc(N[C@H](C)c2cccc(C(F)F)c2F)c2cc3c(cc2n1)OC[C@H]1CN(C(=O)C2COC2)CCN31 | 25 | 3 | 260 | 2010 | 4.58 | half-life [5]: 3.73 h; k el [10]: 5e-05 s⁻¹
Cc1nc(N[C@H](C)c2cccc(C(F)F)c2F)c2cc3c(cc2n1)OC[C@H]1CN(C2CN(C)C2)CCN31 | 166 | – | – | – | – | –
Cc1nc(N[C@H](C)c2cccc(C(F)F)c2F)c2cc3c(cc2n1)OC[C@H]1CN(CC(=O)N(C)C)CCN31 | 295 | – | – | – | – | –
CNC(=O)N1CCN2c3cc4c(N[C@H](C)c5cccc(C(F)F)c5F)nc(C)nc4cc3OC[C@H]2C1 | 15 | 8 | 751 | 2830 | 5.62 | t1/2 [5]: 14.5 h; Kel [10]: 0.26 h⁻¹
Cc1nc(N[C@H](C)c2cccc(C(F)F)c2F)c2cc3c(cc2n1)OC[C@H]1CN(C(=O)C2CC2(F)F)CCN31 (some centres not stated) | 26 | – | – | – | – | –
Cc1nc(N[C@H](C)c2cccc(C(F)F)c2F)c2cc3c(cc2n1)OC[C@H]1CN(C(=O)C2(C#N)CC2)CCN31 | 14 | 1.33 | 600 | 4460 | 4.43 | half-life [5]: 3.87 h; k el [10]: 5e-05 s⁻¹
Cc1nc(N[C@H](C)c2cccc(C(F)F)c2F)c2cc3c(cc2n1)OC[C@H]1CN(S(C)(=O)=O)CCN31 | 79 | – | – | – | – | –
Cc1nc(N[C@H](C)c2cccc(C(F)F)c2F)c2cc3c(cc2n1)OC[C@H]1CN(C2COC2)CCN31 | 96 | – | – | – | – | –
COCCC(=O)N1CCN2c3cc4c(N[C@H](C)c5cccc(C(F)F)c5F)nc(C)nc4cc3OC[C@H]2C1 | 9.5 | 2.92 | 674 | 3340 | 3.45 | half-life [5]: 3.85 h; k el [10]: 5e-05 s⁻¹
Cc1nc(N[C@H](C)c2cc(N)cc(C(F)(F)F)c2)c2cc3c(cc2n1)OC[C@H]1CN(C)CCN31 | 11 | – | – | – | – | IC50 [11]: 7.3 nM
Cc1nc(N[C@H](C)c2cccc(C(F)F)c2F)c2cc3c(cc2n1)OC[C@H]1CN(C(=O)C2C(C)(C)C2(C)C)CCN31 | 9 | – | – | – | – | –
CC(=O)N1CCOc2cc3nc(C)nc(N[C@H](C)c4cc(N)cc(C(F)(F)F)c4)c3cc21 | 780 | – | – | – | – | IC50 [11]: 122 nM

From ChEMBL document CHEMBL5236589, “Design and Structural Optimization of Orally Bioavailable SOS1 Inhibitors for the Treatment of KRAS-Driven Carcinoma” (J Med Chem, 2022)
